Converted amounts (≈) assume the structure as drawn.
Columns and labels:
Haemophilus influenzae [1] = experiment: Antimicrobial activity against beta-lactamase positive ampicillin-resistant-Haemophilus influenzae gyrA Ser84Leu, parC Ser84Arg/Asn138Ser and parE Asp364Gly mutant gene by broth microdilution method
Haemophilus influenzae [2] = experiment: Antimicrobial activity against beta-lactamase negative ampicillin-resistant-Haemophilus influenzae harboring fst1 mutant gene and gyrA Ser84Leu mutant gene by broth microdilution method
Haemophilus influenzae [3] = experiment: Antimicrobial activity against beta-lactamase negative ampicillin-resistant-Haemophilus influenzae harboring fst1 mutant gene and gyrA Ser84Leu, parC Asn138Ser and parE Ser474Asn mutant gene by broth microdilution method
Haemophilus influenzae [4] = experiment: Antimicrobial activity against beta-lactamase positive (amoxicillin)-clavulanate-resistant Haemophilus influenzae harboring fst1 mutant gene and gyrA Ser84Leu/Asp88Gly, parC Glu88Lys and parE VAl392Ile/Asp420Asn mutant gene by broth microdilution method
Haemophilus influenzae [5] = experiment: Antimicrobial activity against beta-lactamase positive (amoxicillin)-clavulanate-resistant Haemophilus influenzae harboring fst1 mutant gene and gyrA Ser84Leu, parC Ser84Cys and parE Ala369Thr mutant gene by broth microdilution method
Haemophilus influenzae [6] = experiment: Antimicrobial activity against beta-lactamase positive (amoxicillin)-clavulanate-resistant Haemophilus influenzae harboring fst1 mutant gene and gyrA Asp88Thr mutant gene by broth microdilution method
Haemophilus influenzae [7] = experiment: Antimicrobial activity against beta-lactamase positive (amoxicillin)-clavulanate-resistant -Haemophilus influenzae harboring fst1 mutant gene and gyrA Ser84Leu, parC Ser84Cys and parE Asp364Thr mutant gene by broth microdilution method
Haemophilus influenzae [8] = experiment: Antimicrobial activity against beta-lactamase positive (amoxicillin)-clavulanate-resistant Haemophilus influenzae harboring fst1 mutant gene and gyrA Ser84Leu and parE Ala369Thr mutant gene by broth microdilution method
Haemophilus influenzae [9] = experiment: Antimicrobial activity against beta-lactamase negative ampicillin-resistant-Haemophilus influenzae harboring fst1 mutant gene and gyrA Asp88Thr and parC Glu88Lys mutant gene by broth microdilution method
Haemophilus influenzae [10] = experiment: Antimicrobial activity against beta-lactamase positive (amoxicillin)-clavulanate-resistant Haemophilus influenzae harboring fst1 mutant gene and gyrA Ser84Leu, parC Ser84Ile/Asn138Ser mutant gene by broth microdilution method
Haemophilus influenzae [11] = experiment: Antimicrobial activity against beta-lactamase negative ampicillin-resistant-Haemophilus influenzae harboring fst1 mutant gene and gyrA Ser84Leu, parC Ser133Ala/Asn138Ser mutant gene by broth microdilution method
Haemophilus influenzae [12] = experiment: Antimicrobial activity against beta-lactamase negative ampicillin-susceptible-Haemophilus influenzae harboring gyrA Asp88Gly, gyrB Thr472Ile and parC Asp83Asn mutant gene by broth microdilution method
Haemophilus influenzae [13] = experiment: Antimicrobial activity against beta-lactamase positive ampicillin-resistant-Haemophilus influenzae gyrA Asp88Asn, parC Ser84Cys and parE Ala369Thr mutant gene by broth microdilution method
Haemophilus influenzae [14] = experiment: Antimicrobial activity against beta-lactamase positive (amoxicillin)clavulanate-resistant Haemophilus influenzae assessed as susceptible isolates by broth microdilution method; assay type: functional
Haemophilus influenzae [15] = experiment: Antimicrobial activity against beta-lactamase negative ampicillin-resistant Haemophilus influenzae assessed as susceptible isolates by broth microdilution method; assay type: functional
Haemophilus influenzae [16] = experiment: Antimicrobial activity against beta-lactamase negative ampicillin-resistant -Haemophilus influenzae by broth microdilution method; assay type: functional
Haemophilus influenzae [17] = experiment: Antimicrobial activity against beta-lactamase positive (amoxicillin)clavulanate-resistant Haemophilus influenzae by broth microdilution method; assay type: functional
Haemophilus influenzae [18] = experiment: Antimicrobial activity against beta-lactamase negative ampicillin-resistant-Haemophilus influenzae harboring […] mutant gene by disk diffusion method in presence of beta-lactamase inhibitor Tazobactam; assay type: functional
Haemophilus influenzae [19] = experiment: Antimicrobial activity against beta-lactamase negative […]-Haemophilus influenzae harboring […] mutant gene by disk diffusion method in presence of beta-lactamase inhibitor Tazobactam; assay type: functional
Haemophilus influenzae [20] = experiment: Antimicrobial activity against beta-lactamase negative ampicillin-resistant Haemophilus influenzae by broth microdilution method in presence of beta-lactamase inhibitor Tazobactam; assay type: functional
Haemophilus influenzae [21] = experiment: Antimicrobial activity against beta-lactamase-positive ampicillin-resistant Haemophilus influenzae harboring fst1 mutant gene assessed as susceptible isolates by broth microdilution method in presence of beta-lactamase inhibitor Tazobactam; assay type: functional
Haemophilus influenzae [22] = experiment: Antimicrobial activity against beta-lactamase positive (amoxicillin)clavulanate-resistant Haemophilus influenzae assessed as susceptible isolates by broth microdilution method in presence of beta-lactamase inhibitor Tazobactam; assay type: functional
Haemophilus influenzae [23] = experiment: Antimicrobial activity against beta-lactamase negative ampicillin-susceptible Haemophilus influenzae harboring […] mutant gene by broth microdilution method in presence of beta-lactamase inhibitor Tazobactam; assay type: functional
Haemophilus influenzae [24] = experiment: Antimicrobial activity against beta-lactamase negative ampicillin-susceptible Haemophilus influenzae harboring […] mutant gene assessed as susceptible isolates by broth microdilution method in presence of beta-lactamase inhibitor Tazobactam; assay type: functional
Haemophilus influenzae [25] = experiment: Antimicrobial activity against beta-lactamase negative ampicillin-resistant Haemophilus influenzae assessed as susceptible isolates by broth microdilution method in presence of beta-lactamase inhibitor Tazobactam; assay type: functional
Haemophilus influenzae [26] = experiment: Antimicrobial activity against beta-lactamase-positive ampicillin-resistant Haemophilus influenzae harboring […] mutant gene by broth microdilution method in presence of beta-lactamase inhibitor Tazobactam; assay type: functional
Haemophilus influenzae [27] = experiment: Antimicrobial activity against beta-lactamase positive (amoxicillin)clavulanate-resistant Haemophilus influenzae by broth microdilution method in presence of beta-lactamase inhibitor Tazobactam; assay type: functional

O=C(O)c1cn(C2CC2)c2cc(N3CCNCC3)c(F)cc2c1=O [CIPROFLOXACIN]
MIC (Haemophilus influenzae [1]): 0.25 µg/mL (≈ 0.754 µM)
MIC (Haemophilus influenzae [2]): 0.06 µg/mL (≈ 0.181 µM)
MIC (Haemophilus influenzae [3]): 0.06 µg/mL (≈ 0.181 µM)
MIC (Haemophilus influenzae [4]): 16 µg/mL
MIC (Haemophilus influenzae [5]): 0.06 µg/mL
MIC (Haemophilus influenzae [6]): 0.06 µg/mL
MIC (Haemophilus influenzae [7]): 0.25 µg/mL
MIC (Haemophilus influenzae [8]): 0.06 µg/mL
MIC (Haemophilus influenzae [9]): 0.06 µg/mL (≈ 0.181 µM)
MIC (Haemophilus influenzae [10]): 0.5 µg/mL
MIC (Haemophilus influenzae [11]): 0.06 µg/mL (≈ 0.181 µM)
MIC (Haemophilus influenzae [12]): 0.25 µg/mL (≈ 0.754 µM)
MIC (Haemophilus influenzae [13]): 0.25 µg/mL (≈ 0.754 µM)

C[C@@H](O)[C@H]1C(=O)N2C(C(=O)O)=C(SCCNC=N)C[C@H]12 [IMIPENEM ANHYDROUS]
Activity (Haemophilus influenzae [14]): 98%
Activity (Haemophilus influenzae [15]): 96%
MIC50 (Haemophilus influenzae [16]): 1 µg/mL (≈ 3.34 µM)
MIC90 (Haemophilus influenzae [16]): 4 µg/mL (≈ 13.4 µM)
MIC50 (Haemophilus influenzae [17]): 2 µg/mL
MIC90 (Haemophilus influenzae [17]): 2 µg/mL

C[C@@H](O)[C@H]1C(=O)N2C(C(=O)O)=C(S[C@@H]3CN[C@H](C(=O)N(C)C)C3)[C@H](C)[C@H]12 [MEROPENEM]
Activity (Haemophilus influenzae [14]): 100%
Activity (Haemophilus influenzae [15]): 99%
MIC50 (Haemophilus influenzae [16]): 0.25 µg/mL (≈ 0.652 µM)
MIC90 (Haemophilus influenzae [16]): 0.5 µg/mL (≈ 1.3 µM)
MIC50 (Haemophilus influenzae [17]): 0.25 µg/mL
MIC90 (Haemophilus influenzae [17]): 0.5 µg/mL

CCN1CCN(C(=O)N[C@@H](C(=O)N[C@@H]2C(=O)N3[C@@H]2SC(C)(C)[C@@H]3C(=O)O)c2ccccc2)C(=O)C1=O [PIPERACILLIN]
inhibition zone (IZ) (Haemophilus influenzae [18]): >=21 mm
inhibition zone (IZ) (Haemophilus influenzae [19]): >=21 mm
MIC50 (Haemophilus influenzae [20]): 0.06 µg/mL
MIC90 (Haemophilus influenzae [20]): 0.12 µg/mL
Activity (Haemophilus influenzae [21]): 100%
Activity (Haemophilus influenzae [22]): 100%
MIC (Haemophilus influenzae [23]): ≤ 0.03 µg/mL
MIC50 (Haemophilus influenzae [23]): ≤ 0.03 µg/mL
MIC90 (Haemophilus influenzae [23]): 0.06 µg/mL
Activity (Haemophilus influenzae [24]): 100%
Activity (Haemophilus influenzae [25]): 100%
MIC50 (Haemophilus influenzae [16]): 0.12 µg/mL (≈ 0.232 µM)
MIC90 (Haemophilus influenzae [16]): 0.25 µg/mL (≈ 0.483 µM)
MIC (Haemophilus influenzae [26]): ≤ 0.03 µg/mL
MIC50 (Haemophilus influenzae [26]): ≤ 0.03 µg/mL
MIC90 (Haemophilus influenzae [26]): 0.06 µg/mL
MIC50 (Haemophilus influenzae [27]): 0.12 µg/mL
MIC90 (Haemophilus influenzae [27]): 0.25 µg/mL
MIC50 (Haemophilus influenzae [17]): 32 µg/mL
MIC90 (Haemophilus influenzae [17]): ≥ 64 µg/mL
